Laboratory results reported in ChEMBL document CHEMBL2440055, “Unusual transformation of substituted-3-formylchromones to pyrimidine analogues: synthesis and antimicrobial activities of 5-(o-hydroxyaroyl)pyrimidines” (Bioorg Med Chem Lett, 2013).
Converted amounts (≈) assume the structure as drawn. The source made the active and inactive calls. The calls are words filed in the database; no cut-off is given here.

How the values were obtained:
[1] = tested on: Staphylococcus aureus; conditions: MTCC-740
[2] = tested on: Candida tropicalis; assay: Antifungal activity against Candida tropicalis MTCC-230 after 24 to 72 hrs by broth dilution method; assay type: functional
[3] = tested on: Candida albicans; assay: Antifungal activity against Candida albicans MTCC-227 after 24 to 72 hrs by broth dilution method; assay type: functional
[4] = Cytotoxicity against human HeLa cells assessed as cell survival at 20 uM after 24 hrs by MTT assay; assay type: cell-based; conditions: read-out: Survival
[5] = tested on: Escherichia coli; assay: Antibacterial activity against Escherichia coli MTCC-119 after overnight incubation by two-fold broth dilution method; assay type: functional
[6] = tested on: Shigella flexneri; assay: Antibacterial activity against Shigella flexneri MTCC-1457 after overnight incubation by two-fold broth dilution method; assay type: functional
[7] = tested on: Pseudomonas aeruginosa; assay: Antibacterial activity against Pseudomonas aeruginosa MTCC-741 after overnight incubation by two-fold broth dilution method; assay type: functional
[8] = Cytotoxicity against human HeLa cells assessed as cell survival at 200 uM up to 24 hrs by MTT assay; assay type: cell-based; conditions: read-out: Survival
[9] = tested on: Aspergillus niger; assay: Antifungal activity against Aspergillus niger MTCC-281 after 24 to 72 hrs by broth dilution method; assay type: functional
[10] = tested on: Geotrichum; assay: Antifungal activity against Geotrichum candidum MTCC-3993 after 24 to 72 hrs by broth dilution method; assay type: functional
[11] = tested on: Staphylococcus aureus; assay: Antibacterial activity against Staphylococcus aureus MTCC-740 after overnight incubation by two-fold broth dilution method

SMILES	MIC [1]	MIC [2] [µg/mL]	MIC [3] [µg/mL]	viability at 24 h, 20 µM [4] [%]	MIC [5] [µg/mL]	MIC [6] [µg/mL]	MIC [7] [µg/mL]	viability at 24 h, 200 µM [8] [%]	MIC [9] [µg/mL]	MIC [10] [µg/mL]	MIC [11] [µg/mL]
O=C(c1cncnc1)c1cc(F)c(Cl)cc1O	inactive	46 (≈ 182 µM)	46 (≈ 182 µM)	98	> 100	50 (≈ 198 µM)	70 (≈ 277 µM)	84	48 (≈ 190 µM)	15 (≈ 59.4 µM)	–
O=C(c1cncnc1)c1cc(F)ccc1O	inactive	78 (≈ 357 µM)	28 (≈ 128 µM)	–	> 100	78 (≈ 357 µM)	> 100	–	> 100	35 (≈ 160 µM)	–
O=C(c1cncnc1)c1ccccc1O	inactive	> 100	34 (≈ 170 µM)	–	64 (≈ 320 µM)	58 (≈ 290 µM)	66 (≈ 330 µM)	–	70 (≈ 350 µM)	48 (≈ 240 µM)	–
OC(Cn1cncn1)(Cn1cncn1)c1ccc(F)cc1F [FLUCONAZOLE]	–	23 (≈ 75.1 µM)	20 (≈ 65.3 µM)	–	–	–	–	–	45 (≈ 147 µM)	10 (≈ 32.7 µM)	–
O=C(c1cncnc1)c1cc(Cl)ccc1O	inactive	> 100	35 (≈ 149 µM)	–	68 (≈ 290 µM)	74 (≈ 315 µM)	96 (≈ 409 µM)	–	50 (≈ 213 µM)	28 (≈ 119 µM)	–
O=C(O)c1cn(C2CC2)c2cc(N3CCNCC3)c(F)cc2c1=O [CIPROFLOXACIN]	–	–	–	–	–	1.2 (≈ 3.62 µM)	0.7 (≈ 2.11 µM)	–	–	–	1.6 (≈ 4.83 µM)
Cc1ccc(O)c(C(=O)c2cncnc2)c1	inactive	54 (≈ 252 µM)	70 (≈ 327 µM)	–	> 100	84 (≈ 392 µM)	60 (≈ 280 µM)	–	55 (≈ 257 µM)	40 (≈ 187 µM)	–
